Test results reported in publication PMC3080343, “Small lytic peptides escape the inhibitory effect of heparan sulfate on the surface of cancer cells” (BMC Cancer, 2011).
Read-outs that look alike come from different tables or passages of the source. Where a SMILES comes first, the peptide text is derived from it. [ ]: non-standard residue; d: D form. Dip = N[C@H](C(=O)O)C(c1ccccc1)c1ccccc1; Orn = NCCC[C@H](N)C(=O)O

Legend:
HT-29 = assay type: cell-based; details: 2 h
Protocol: (§1) The colorimetric MTT viability assay was used to investigate the cytotoxic effect of the peptides. The HT-29, MT-1, Kelly, HUVEC and MRC-5 cells were seeded at a concentration of 2 × 10^5 cells/ml, 1.5 × 10^5 cells/ml, 2 × 10^5 cells/ml, 1 × 10^5 cells/ml and 1 × 10^5 cells/ml in a volume of 0.1 ml in 96-well plates, respectively. CHO-K1 and pgsA-745 cells were seeded at a concentration of 1 × 10^5 cells/ml. The cells were allowed to adhere overnight in complete medium. Before adding different concentrations of the peptides (10-500 μg/ml) to the cells, the culture medium was removed and the cells were washed twice in serum-free culture medium. The non-adherent lymphoma cell lines were seeded at a density of 4 × 10^5 cells/ml using serum-free medium. After incubating the cells with peptides for 30 minutes at 37°C, 0.5 mg MTT-solution was added to each well and the incubation was continued for 2 hours. A volume of 70 μl or 130 μl per well was removed from the non-adherent and adherent cells, respectively. In order to dissolve the formazan crystals, 100 μl of 0.04 M HCl in isopropanol was added and the plates were shaken for 1 hour on a Thermolyne Roto Mix (Dubuque, IA) at room temperature. The optical density was measured on a microplate reader (VERSAmax™ Molecular Devices, CA). Cells treated with 1% Triton X-100 in serum-free medium was used as positive control for 100% cell death, whereas cells in serum free medium were used as negative control. Cell survival was determined from the ΔA590 nm relative to the negative control (100% living cells) and expressed as 50% inhibitory concentration (IC50).

KMM-1 = assay type: cell-based; details: 2 h
Protocol: as §1

KMS-5 = assay type: cell-based; details: 2 h
Protocol: as §1

Kelly = assay type: cell-based; details: for IC50: 2 h
Protocol: as §1

MT-1 = assay type: cell-based; details: 2 h
Protocol: as §1

Ramos = assay type: cell-based; details: 2 h
Protocol: as §1

Sudhl-4 = assay type: cell-based; details: 2 h
Protocol: as §1

U-266 = assay type: cell-based; details: 2 h
Protocol: as §1

lymphoma cells = assay type: cell-based; details: 2 h
Protocol: as §1

HUVEC = assay type: cell-based, human; details: 2 h
Protocol: as §1

[1] = MTT viability assay, MRC-5 fibroblast-like cells; assay type: cell-based; details: human
Protocol: as §1

MRC-5 = test: MTT viability assay, MRC-5 fibroblast-like cells; assay type: cell-based; details: 2 h
Protocol: as §1

[2] = tested on: human red blood cells (RBC); assay type: cell-based; details: red cells of human, 1 h
Protocol: The hemolytic activity of the peptides was determined using freshly isolated human red blood cells (RBC) as previously described. Briefly, venous blood was collected, transferred to a tube containing heparin (10 U/ml) and centrifuged at 1500 rpm for 10 minutes in order to isolate the red blood cells. The red blood cells were washed three times with PBS (35 mM phosphate buffer with 150 mM NaCl, pH 7.4) by centrifugation at 1500 rpm for 10 minutes, and adjusted to 10% hematocrit with PBS. Peptide solutions were added to yield a final concentration range of the peptide from 1000 μg/ml to 1 μg/ml and a red blood cell concentration of 1%. The resulting suspension was incubated with agitation for 1 hour at 37°C. After incubation the suspension was centrifuged at 4000 rpm for 5 minutes, and the released hemoglobin were monitored by measuring the absorbance of the supernatant at 405 nm on a microplate reader (VERSAmax™ Molecular Devices, CA). PBS and 1% Triton X-100 were used as negative and positive controls, respectively. Peptide concentrations corresponding to 50% hemolysis (EC50) were determined from dose-response curves.

CHO-K1 = assay type: cell-based, Chinese hamster; details: 2 h
Protocol: as §1

pgsA-745 = assay type: cell-based, Chinese hamster; details: for IC50: 2 h
Protocol: as §1

CHO-K1 cells = assay type: cell-based, Chinese hamster
Protocol: as §1
In order to investigate whether soluble CS or HS would interfere with the cytotoxic activity, the peptides were added to cultures of CHO-K1 cells together with exogenous CS and HS. […] The cytotoxic activity of LTX-318 was not inhibited in the presence of soluble CS or HS (Figure 5c).

[3] = Affinity chromatography on CS-Sepharose; assay type: binding; details: NaCl needed to elute peptide from CS-Sepharose; mean of four experiments
Protocol: (§2) Two different Sepharose affinity columns were prepared, using HS and CS as ligands. The ligands were mixed with swollen CNBr-activated Sepharose 4B. Non-reactive groups were blocked with 0.1 M Tris-HCl, pH 8.0 and the gel was washed before packing. The peptides were dissolved in 5 mM phosphate-buffer, pH 7.4 at a concentration of 0.5 mg/ml, and 50 μl samples were applied. A gradient of NaCl was used to elute the different peptides from the columns using a GradiFrac from Amersham Pharmacia Biotech (Uppsala, Sweden) at a flow rate of 1.0 ml/min. The peptides were detected using a monitor UV-1 from Amershan Pharmacia Biotech (Uppsala, Sweden).

[4] = Affinity chromatography on HS-Sepharose; assay type: binding; details: NaCl needed to elute peptide from HS-Sepharose; mean of four experiments
Protocol: as §2

[5] = tested on: carcinoma cell lines HT-29 and MT-1; test: MTT viability assay, carcinoma cell lines HT-29 and MT-1; assay type: cell-based; details: selectivity versus HUVEC and MRC-5
Protocol: as §1, with “Cells treated with 1% Triton X-100 in serum-free medium was used as positive control for 100% cell death, whereas cells in serum free medium were used as negative control. Cell survival was determined from the ΔA590 nm relative to the negative control (100% living cells) and expressed as 50% inhibitory concentration (IC50).” left out

tumor = tested on: tumor; parameters: method as in PMID 20422410; details: cited from earlier work
[6] = tested on: human red blood cells (RBC); parameters: method as in Eliassen et al. [69]; details: hemolysis; ref Eliassen et al. [69]; cited from earlier work

| Structure (SMILES) | IC50 (HT-29) [µM] | IC50 (KMM-1) [µM] | IC50 (KMS-5) [µM] | IC50 (Kelly) [µM] | IC50 (MT-1) [µM] | IC50 (Ramos) [µM] | IC50 (Sudhl-4) [µM] | IC50 (U-266) [µM] | IC50 (lymphoma cells) [µM] | IC50 (HUVEC) [µM] | IC50 at 30 min [1] [µM] | IC50 [2] [µM] | IC50 (CHO-K1) [µM] | IC50 (pgsA-745) [µM] | inhibitory effect of soluble CS and HS on cytotoxic activity (CHO-K1 cells) | inhibitory effect of soluble HS on cytotoxic activity compared to CS (CHO-K1 cells) | Elution concentration from CS [3] [mM NaCl] | Elution concentration from HS [4] [mM NaCl] | other results |
| --- | --- | --- | --- | --- | --- | --- | --- | --- | --- | --- | --- | --- | --- | --- | --- | --- | --- | --- | --- |
| NCCC[C@H](NC(=O)[C@H](Cc1c[nH]c2ccccc12)NC(=O)[C@H](Cc1c[nH]c2ccccc12)NC(=O)[C@H](CCCN)NC(=O)[C@H](CCCN)NC(=O)[C@@H](NC(=O)[C@H](Cc1c[nH]c2ccccc12)NC(=O)[C@H](CCCN)NC(=O)[C@@H](N)CCCN)C(c1ccccc1)c1ccccc1)C(N)=O [LTX-318, OOWDipOOWWO-NH2] (H-[Orn][Orn]W[Dip][Orn][Orn]WW[Orn]-NH2) | 248 ± 5 | 111 ± 1 | 73 ± 5 | 78 ± 7 | 216 ± 36 | 82 ± 11 | 110 ± 5 | 106 ± 17 | 73 to 106 | > 347 | > 347 | > 695 | 145 ± 6 | 176 ± 3 |  |  |  |  | IC50 against endothelial cells (no IC50 value at the highest concentration tested) (HUVEC): > 500 µg/mL; IC50 against fibroblast cells (no IC50 value at the highest concentration tested) (MRC-5): > 500 µg/mL; cytotoxic activity in the presence of soluble CS or HS (CHO-K1 cells): not inhibited |
| NCCCC[C@H](NC(=O)[C@@H](NC(=O)[C@H](Cc1c[nH]c2ccccc12)NC(=O)[C@H](CCCCN)NC(=O)[C@H](CCCCN)NC(=O)[C@H](Cc1c[nH]c2ccccc12)NC(=O)[C@H](Cc1c[nH]c2ccccc12)NC(=O)[C@H](CCCCN)NC(=O)[C@@H](N)CCCCN)C(c1ccccc1)c1ccccc1)C(N)=O [LTX-315, KKWWKKWDipK-NH2] (H-KKWWKKW[Dip]K-NH2) | 38 ± 3 | 17 ± 2 | 10 ± 1.5 | 14 ± 1 | 31 ± 3 | 10 ± 1.7 | 23 ± 2 | 13 ± 1.5 | 10 to 23 | 28 ± 1 | 41 ± 3 | > 695 | 22 ± 5 | 22 ± 3 | only a negligible inhibitory effect | much higher inhibitory effect |  |  | EC50 (50% hemolysis) [2]: > 1000 µg/mL |
| NCCCC[C@H](NC(=O)[C@H](Cc1c[nH]c2ccccc12)NC(=O)[C@H](CCCCN)NC(=O)[C@H](CCCCN)NC(=O)[C@@H](NC(=O)[C@H](Cc1c[nH]c2ccccc12)NC(=O)[C@H](CCCCN)NC(=O)[C@H](CCCCN)NC(=O)[C@@H](N)Cc1c[nH]c2ccccc12)C(c1ccccc1)c1ccccc1)C(N)=O [LTX-302, WKKWDipKKWK-NH2] (H-WKKW[Dip]KKWK-NH2; N-terminus assumed) | 75 ± 5 | 40 ± 6 | 31 | 28 | 73 ± 2 | 30 ± 2 | 46 ± 6 | 36 ± 6 | 31 to 46 | 123 ± 9 | 126 ± 11 | > 695 | 42 ± 7 | 54 ± 2 | only a negligible inhibitory effect | much higher inhibitory effect | 187 ± 13 | 330 ± 9 | fold higher activity against neuroblastoma cell line in comparison to endothelial and fibroblast cells (Kelly; selectivity versus HUVEC and MRC-5): ~ 4.5 fold; Ratio (IC50) pgsA-745/CHO-K1 (pgsA-745): 1.28; fold higher activity against carcinoma cell lines in comparison to endothelial and fibroblast cells [5]: ~ 2 fold; tumor response after intratumoral injection (tumor): complete regression of the tumor |
| CC[C@H](C)[C@@H]1NC(=O)[C@H](CO)NC(=O)[C@@H]2CCCN2C(=O)[C@H](C)NC(=O)CNC(=O)[C@H](CC(C)C)NC(=O)[C@H](CCCCN)NC(=O)[C@H](CCCCN)NC(=O)[C@H](CCSC)NC(=O)[C@H](CCCNC(=N)N)NC(=O)[C@H](Cc2c[nH]c3ccccc23)NC(=O)[C@H](CCC(N)=O)NC(=O)[C@H](Cc2c[nH]c3ccccc23)NC(=O)[C@H](CCCNC(=N)N)NC(=O)[C@H](CCCNC(=N)N)NC(=O)[C@@H](NC(=O)[C@H](CCCCN)NC(=O)[C@@H](N)Cc2ccccc2)CSSC[C@@H](C(=O)N[C@H](C(=O)N[C@@H](CCCNC(=N)N)C(=O)N[C@@H](CCCNC(=N)N)C(=O)N[C@@H](C)C(=O)N[C@@H](Cc2ccccc2)C(=O)O)C(C)C)NC(=O)[C@H]([C@@H](C)O)NC1=O [LfcinB, bovine lactoferricin, reference compound] |  |  |  |  |  |  |  |  |  |  |  |  |  |  |  |  | 130 ± 9 | 417 ± 4 | IC50 at 30 min ([1]; MTT, 30 min incubation, serum-free, read-out: MRC-5 IC50): > 160 µM; IC50 [6]: > 500 µM |
